# Source: patent US9089499B2, “Para-coumaric acid or para-hydroxycinnamic acid derivatives and their use in cosmetic or dermatological compositions” (BASF Beauty Care Solutions France S.A.S., priority 2005, dated 2015)
# Like-named read-outs stand apart in the source and are kept apart here.
# Legend:
# Human tyrosinase [1] = molecular target: T1, Human tyrosinase (Homo sapiens, UniProt P14679); assay: Inhibition of human tyrosinase after 24 h application to normal human melanocytes in monolayer; assay type: cell-based; conditions: for anti-tyrosinase activity, in words: comment on Table 4, normal human melanocytes; for Tyrosinase inhibition, Mean Inhibition (%), 0.03%: test concentration 0.03%; for inhibition at 1000 µM: 10^−3 M
# T1 construct: endogenous in cells; host or cells: normal human melanocytes (abdominal surgery; several donors of fair, brown and black phototypes)
# T1 sequence (P14679 19-529): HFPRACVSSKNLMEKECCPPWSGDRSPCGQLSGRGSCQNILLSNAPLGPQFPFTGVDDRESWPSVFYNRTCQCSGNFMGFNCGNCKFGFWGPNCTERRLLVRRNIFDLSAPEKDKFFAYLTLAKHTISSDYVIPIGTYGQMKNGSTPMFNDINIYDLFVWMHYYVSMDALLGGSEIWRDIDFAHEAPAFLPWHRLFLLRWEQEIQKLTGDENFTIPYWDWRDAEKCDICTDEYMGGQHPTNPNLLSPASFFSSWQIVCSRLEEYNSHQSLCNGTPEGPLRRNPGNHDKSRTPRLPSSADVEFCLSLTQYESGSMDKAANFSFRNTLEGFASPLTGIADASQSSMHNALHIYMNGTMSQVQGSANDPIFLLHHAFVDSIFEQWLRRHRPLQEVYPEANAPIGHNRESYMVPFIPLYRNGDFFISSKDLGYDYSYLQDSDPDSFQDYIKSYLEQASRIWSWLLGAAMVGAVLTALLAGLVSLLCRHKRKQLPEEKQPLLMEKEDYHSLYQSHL
# Description: Normal human melanocytes (obtained from abdominal surgery) are seeded in 24-well plates at a rate of 80 000 cells per well. They are cultured to confluence and the active agents are applied for 24 hours to the culture media. After 24 hours, the media are removed and the melanocytes are detached via mechanical action. An extraction is performed via a thermal shock and the supernatants are then recovered and incubated with MBTH (Sigma) and L-dopa (Sigma). The OD at 490 nm is measured after 30 minutes, and the tyrosinase inhibition is calculated by relating the OD at 490 nm to the protein content (measured in each culture well) of the test relative to the ratio: OD 490 nm/protein concentration of the negative control (untreated control).
# The compounds derived from the examples mentioned above were tested on melanocytes derived from various donors but of fair phototype, according to the protocol described in Example 29. The donors tested are as follows: • donor S (donor tested in Example 12): • donor 1: • donor 2: • donor 3
# The compound derived from Example 1 is tested on cultures of melanocytes obtained from 2 donors of brown phototype and from one donor of black phototype. The protocol applied is that described in Example 29. […]
# melanocytes = assay: Cytotoxicity of literature controls in the melanocyte tyrosinase model
# Description: A study is performed with molecules known in the literature for their depigmenting activity; these molecules are applied to the model described in Example 29 so as to compare their efficacy relative to the molecules described in the various examples. […]
# fungal tyrosinase = assay: In vitro test of inhibition of isolated fungal tyrosinase (L-dopa, dopachrome OD 490 nm); assay type: biochemical
# From the text: Tyrosinase catalyses the formation of L-dopaquinone and then of dopachrome from L-dopa. Now, dopachrome is a coloured compound that may be quantified by visible spectrophotometry at 490 nm. The use of an active agent capable of modifying the enzymatic activity will be reflected by a variation in the optical density at 490 nm. The to ratio of the rates of formation of dopachrome makes it possible to determine precisely the activations or inhibitions obtained with the various test molecules.
# The sample to be tested is incubated in the presence of fungal tyrosinase (Sigma), for 5 minutes with stirring. L-Dopa (Sigma), a tyrosinase substrate, is incubated for 10 minutes in the absence of light, in the presence or absence of the test molecules. The calculation of the percentage of inhibition is performed by relating the test OD to the OD of the negative control without molecule.
# In the context of this in vitro test, the p-coumaric acid derivatives were tested at final concentrations of 10^−4M and 10^−5M.
# Human tyrosinase [2] = molecular target: T1, Human tyrosinase; assay: In vitro test of inhibition of human tyrosinase from melanocyte extracts (L-dopa/MBTH, OD 490 nm); assay type: biochemical; conditions: melanocyte extract; for inhibition at 100 µM: 10^−4M, read-out: Inhibition of human tyrosinase, percentage of inhibition, Mean 10^−4M; for inhibition at 10 µM: 10^−5M, read-out: Inhibition of human tyrosinase, percentage of inhibition, Mean 10^−5M
# Description: Human tyrosinase, obtained from melanocyte extracts obtained from healthy donors, catalyses the formation of L-dopaquinone from L-dopa. Now, the L-dopaquinone may be quantified by visible spectrophotometry at 490 nm by means of a chromogen: 3-methyl-2-benzothiazolinone hydrazone (MBTH).
# The melanocyte extract is obtained after lysis of cell membranes of the normal human melanocytes, performed via a thermal shock. The supernatant is recovered and then incubated with MBTH (Sigma) and L-dopa (Sigma). […]
# normal human melanocytes = assay: Cytotoxicity on normal human melanocytes, PNPP assay; assay type: cell-based; conditions: 24 hours, relative to untreated wells
# Description: The cytotoxicity of the active agents is studied on normal human melanocytes in 24-well plates, via assay with PNPP (P-nitrophenyl phosphate), this substance being converted into p-nitrophenol via the intracellular acid phosphatases of viable cells. The absorbance of p-nitrophenol at 405 nm is directly proportional to the number of viable cells.
# The active agents are tested at 2 different concentrations (10^−4 M and 10^−5 M) and added to the culture medium and incubated at 37° C. for 24 hours. The assay with PNPP is performed on the cell lawn and the results are expressed as a percentage of viability relative to the negative control (untreated wells).
# [3] = Antiradical activity, acellular DPPH model; conditions: DPPH 30 minutes, absorbance 520 nm
# Description: The antiradical activity of the derivatives derived from the syntheses described above was evaluated in an in vitro acellular model using DPPH.
# 1,1-Diphenyl 2-picryihydrazyl, on account of its paramagnetic structure, can accept an electron or a hydrogen radical to become a stable diamagnetic molecule. This free radical, which is purple coloured in ethanol, has a strong absorption band at 520 nm.
# The addition of a compound that provides electrons results in a decolorization of the 1,1-diphenyl 2-picrylhydrazyl that is proportional to the number of electrons taken up by the radical, which may be monitored by measuring the absorbance at 520 nm.
# DPPH is incubated for 30 minutes in the presence of the derivatives described above, tested at a concentration of 10^−5M, or alone for the control. At the end of the incubation, the antiradical activity of the above derivatives is evaluated by measuring the absorbance of the solution at 520 nm.
# The antiradical activity of each test product is calculated according to the formula, as a percentage: 100−((OD520 in the presence of the test compound/OD520 in the absence of compound)×100)
# [4] = 10^−4M, 24 hours, read-out: Inhibition of human tyrosinase after application to normal human melanocytes, percentage of inhibition, Mean 10^−4M
# [5] = 10^−5M, 24 hours, read-out: Inhibition of human tyrosinase after application to normal human melanocytes, percentage of inhibition, Mean 10^−5M
# [6] = read-out: Inhibition of human tyrosinase after application to normal human melanocytes, percentage of inhibition, Mean 10^−4M
structure (smiles),measurement,setting,value
"O=C(CCc1ccc(O)c(O)c1)NCCc1ccc(O)cc1 [Example 13, dihydrocaffeoyltyramine]",inhibition at 100 µM,Human tyrosinase [1]; [4],93.9%
same,inhibition at 10 µM,Human tyrosinase [1]; [5],12.9%
"Cl.NCCc1ccc(O)cc1 [Tyramine, reference compound]","anti-tyrosinase activity, in words",Human tyrosinase [1],very low activity
same,inhibition at 100 µM,Human tyrosinase [1]; [6],22.8%
"O=C1O[C@H]([C@@H](O)CO)C(O)=C1O [VitC, Vitamin C]","Tyrosinase inhibition, Mean Inhibition (%), 0.03%",Human tyrosinase [1],0%
same,"Cytotoxicity, 0.03%",melanocytes,no
same,"Cytotoxicity, 0.3%",melanocytes; test concentration 0.3%,cell death
same,"Cytotoxicity, 3%",melanocytes; test concentration 3%,cell death
"COc1cc(/C=C/C(=O)NCCc2ccc(OC)c(OC)c2)ccc1O [Example 2, N-trans-feruloyl-3,4-dimethoxydopamine]","Inhibition of fungal tyrosinase, percentage of inhibition, Mean 10^−4M",fungal tyrosinase; 490 nm,0%
same,inhibition at 100 µM,Human tyrosinase [2],0.94%
same,inhibition at 10 µM,Human tyrosinase [2],0%
same,inhibition at 100 µM,Human tyrosinase [1]; [4],24.6%
same,inhibition at 10 µM,Human tyrosinase [1]; [5],18.5%
same,"Percentages of viability, Mean 10^−4 M",normal human melanocytes,114.29%
same,"Percentages of viability, Mean 10^−5 M",normal human melanocytes,114.6%
same,"Antiradical activity, Mean 10^−5 M",[3],20.16%
"O=C(/C=C/c1ccc(O)c(O)c1)NCCc1ccc(O)cc1 [Example 9, N-trans-caffeoyltyramine]","Inhibition of fungal tyrosinase, percentage of inhibition, Mean 10^−4M",fungal tyrosinase; 490 nm,27.42%
same,"Inhibition of fungal tyrosinase, percentage of inhibition, Mean 10^−5M","fungal tyrosinase; 10^−5M, 490 nm",13.06%
same,inhibition at 100 µM,Human tyrosinase [2],22.1%
same,inhibition at 10 µM,Human tyrosinase [2],11.9%
same,inhibition at 100 µM,Human tyrosinase [1]; [4],100%
same,inhibition at 10 µM,Human tyrosinase [1]; [5],24.6%
same,inhibition at 1000 µM,"Human tyrosinase [1]; B103, Donor B, brown phototype, read-out: Inhibition of tyrosinase, Mean Donor B, 10^−3 M",94.5%
same,inhibition at 100 µM,"Human tyrosinase [1]; B104, Donor B, brown phototype, 10^−4 M, read-out: Inhibition of tyrosinase, Mean Donor B, 10^−4 M",44.4%
same,inhibition at 100 µM,"Human tyrosinase [1]; Donor 1, fair phototype, 10^−4 M, read-out: Inhibition of tyrosinase, Mean 10^−4 M, Donor 1",65.3%
same,inhibition at 10 µM,"Human tyrosinase [1]; Donor 1, fair phototype, 10^−5 M, read-out: Inhibition of tyrosinase, Mean 10^−5 M, Donor 1",0%
same,inhibition at 100 µM,"Human tyrosinase [1]; Donor 2, fair phototype, 10^−4 M, read-out: Inhibition of tyrosinase, Mean 10^−4 M, Donor 2",61.5%
same,inhibition at 10 µM,"Human tyrosinase [1]; Donor 2, fair phototype, 10^−5 M, read-out: Inhibition of tyrosinase, Mean 10^−5 M, Donor 2",0%
same,inhibition at 100 µM,"Human tyrosinase [1]; Donor 3, fair phototype, 10^−4 M, read-out: Inhibition of tyrosinase, Mean 10^−4 M, Donor 3",70.7%
same,inhibition at 10 µM,"Human tyrosinase [1]; Donor 3, fair phototype, 10^−5 M, read-out: Inhibition of tyrosinase, Mean 10^−5 M, Donor 3",22.2%
same,inhibition at 1000 µM,"Human tyrosinase [1]; Donor A, brown phototype, read-out: Inhibition of tyrosinase, Mean Donor A, 10^−3 M",98.9%
same,inhibition at 100 µM,"Human tyrosinase [1]; Donor A, brown phototype, 10^−4 M, read-out: Inhibition of tyrosinase, Mean Donor A, 10^−4 M",44.6%
same,inhibition at 10 µM,"Human tyrosinase [1]; Donor A, brown phototype, 10^−5 M, read-out: Inhibition of tyrosinase, Mean Donor A, 10^−5 M",21.3%
same,inhibition at 10 µM,"Human tyrosinase [1]; Donor B, brown phototype, 10^−5 M, read-out: Inhibition of tyrosinase, Mean Donor B, 10^−5 M",18.9%
same,inhibition at 100 µM,"Human tyrosinase [1]; Donor S, fair phototype, 10^−4 M, read-out: Inhibition of tyrosinase, Mean 10^−4 M, Donor S",100%
same,inhibition at 10 µM,"Human tyrosinase [1]; Donor S, fair phototype, 10^−5 M, read-out: Inhibition of tyrosinase, Mean 10^−5 M, Donor S",24.6%
same,inhibition at 100 µM,"Human tyrosinase [1]; donor of black phototype, 10^−4 M, read-out: Inhibition, Mean Negroid skin, 10^−4 M",49.3%
same,inhibition at 10 µM,"Human tyrosinase [1]; donor of black phototype, 10^−5 M, read-out: Inhibition, Mean Negroid skin, 10^−5 M",16%
same,"Percentages of viability, Mean 10^−4 M",normal human melanocytes,77.9%
same,"Percentages of viability, Mean 10^−5 M",normal human melanocytes,94.96%
same,"Antiradical activity, Mean 10^−5 M",[3],41.17%
"O=C1O[C@H]([C@@H](O)CO)C([O-])=C1OP(=O)([O-])[O-].O=C1O[C@H]([C@@H](O)CO)C([O-])=C1OP(=O)([O-])[O-].[Mg+2].[Mg+2].[Mg+2] [VitC MgP, reference compound]","Tyrosinase inhibition, Mean Inhibition (%), 0.03%",Human tyrosinase [1],2.93%
same,"Tyrosinase inhibition, Mean Inhibition (%), 0.3%",Human tyrosinase [1]; test concentration 0.3%,1.55%
same,"Tyrosinase inhibition, Mean Inhibition (%), 3%",Human tyrosinase [1]; test concentration 3%,0%
same,"Cytotoxicity, 0.03%",melanocytes,no
same,"Cytotoxicity, 0.3%",melanocytes,no
same,"Cytotoxicity, 3%",melanocytes,no
"O=c1cc(CO)occ1O [Kojic acid, kojic acid]","Inhibition of fungal tyrosinase, positive control",fungal tyrosinase; 0.01%,45%
same,"Cytotoxicity, 0.005%",melanocytes,no
same,"Cytotoxicity, 0.05%",melanocytes,no
same,"Cytotoxicity, 0.5%",melanocytes,cell death
"Cl.NCCc1ccc(O)c(O)c1 [Dopamine, 3-hydroxytyramine, reference compound]","anti-tyrosinase activity, in words",Human tyrosinase [1],very low activity
same,inhibition at 100 µM,Human tyrosinase [1]; [6],10.3%
"COc1cc(CCC(=O)NCCc2ccc(O)cc2)ccc1O [Example 5, N-dihydroferuloyltyramine]",inhibition at 100 µM,Human tyrosinase [1]; [4],27.7%
"O=C(O)CCc1ccc(O)cc1 [p-Dihydrocoumaric acid, 3-(4-hydroxyphenyl)propionic acid, reference compound]",inhibition at 100 µM,Human tyrosinase [1]; [4],3.74%
"COc1cc(CCC(=O)NCCc2ccc(O)c(O)c2)ccc1O [Example 6, N-dihydroferuloyldopamine]",inhibition at 100 µM,Human tyrosinase [1]; [4],41.8%
"O=C(CCc1ccc(O)cc1)NCCc1ccc(O)cc1 [Example 16, N-dihydrocoumaroyltyramine]",inhibition at 100 µM,Human tyrosinase [1]; [4],96.2%
same,inhibition at 10 µM,Human tyrosinase [1]; [5],40.7%
"O=C(O)C=Cc1ccc(O)cc1 [p-Coumaric acid, p-hydroxycinnamic acid, reference compound]",inhibition at 100 µM,Human tyrosinase [1]; [4],50.1%
"O=C(O)C=Cc1ccc(O)c(O)c1 [Caffeic acid, 3,4-dihydroxycinnamic acid, reference compound]",inhibition at 100 µM,Human tyrosinase [1]; [4],10.4%
same,inhibition at 10 µM,Human tyrosinase [1]; [5],2.34%
same,"anti-tyrosinase activity, in words",Human tyrosinase [1],very low activity
"COc1cc(/C=C/C(=O)OCCc2ccc(O)cc2)ccc1O [Example 7, 2-(p-hydroxyphenylethyl)trans-ferulate]",inhibition at 100 µM,Human tyrosinase [1]; [4],33.6%
same,inhibition at 10 µM,Human tyrosinase [1]; [5],3.48%
"COc1cc(C=CC(=O)O)ccc1O [Ferulic acid, 4-hydroxy-3-methoxycinnamic acid, reference compound]",inhibition at 100 µM,Human tyrosinase [1]; [4],11.7%
same,inhibition at 10 µM,Human tyrosinase [1]; [5],5.87%
same,"anti-tyrosinase activity, in words",Human tyrosinase [1],very sparingly active
